Laboratory results as given in patent publication US20090318424A1, “NOVEL COMPOUNDS” (priority 2006, published 2009).
“Also recorded” adds a separate entry of the source. Where a name gives a salt, the structure may show the parent alone.

tested on: influx of neutrophils to the lung in LPS-challenged rats; experiment: Rat LPS neutrophilia model; type: in vivo; conditions: LPS aerosol 100 ug/ml 15 min, lavage 4 hours later; in at least one of the range of conditions tested
Description: The effect of compounds on the influx of neutrophils to the lung in LPS-challenged rats is evaluated as follows. The test compound is suspended in one of the following solutions: 0.5% tween 80/PBS, 0.5% tween 80/saline, 10% EtOH/saline (with pH adjusted to 2.0, or 8.0 with HCl, or unadjusted), Saline @ pH 2.0, 6.5 or 8.0, 0.5% Tragacanth, 1% DMSO/20% Encapsin/Saline, or acidified 5% Tragacanth. The suspension process may be aided by the use of a glass homogenizer. For intratracheal administration, the animals are anesthetized with inhaled isoflurane and placed in a supine position, the trachea is intubated with a steel gavage needle (1.5 inch, 22 gauge, small ball) or a Penn-Century Microsprayer Aerosolizer (model IA-IB) and 200 ul of dosing solution is delivered. The animals are visually monitored during the recovery process, which typically occurs within two minutes.
Rats treated with compound or vehicle (15 min-24 hours pretreatment) are exposed to an LPS aerosol (100 ug/ml) for 15 min. Four hours later the rats are euthanized with pentobarbital (100 mg/kg, i.p.) and the airways are lavaged with 5 washes of 5 ml of phosphate buffered saline. The harvested cells are stained (Diffquick) and counted to determine total and differential cell data. In a typical study, macrophages represent 40-70% of the total cells, and polymorphonuclear cells 30-60% of the total cells. Inhibition of neutrophil levels relative to no compound controls is calculated based on the differential counts.
The assay has varying conditions, such as concentration, pretreat time, form of the compound (crystalline, amorphous, salts, micronised), and a wet or dry application of the compound. The data is obtained as % inhibition using a particular concentration and pretreat time.

| SMILES | inhibition of neutrophilia |
| --- | --- |
| Cc1ccc(C(=O)NC(C)C)cc1-c1nc(N2CCC(N3CCCCC3)CC2)nc2c1CNC(=O)N2c1c(F)cccc1F [Example 57, 3-[2-(1,4′-bipiperidin-1′-yl)-8-(2,6-difluorophenyl)-7-oxo-5,6,7,8-tetrahydropyrimido[4,5-d]pyrimidin-4-yl]-4-methyl-N-(1-methylethyl)benzamide] | statistically nonsignificant inhibition |
| Cc1ccc(C(=O)Nc2ccc(F)c(F)c2)cc1-c1nc(NCCN(C)C)nc2c1CNC(=O)N2c1c(F)cccc1F [Example 138, N-(3,4-difluorophenyl)-3-(8-(2,6-difluorophenyl)-2-{[2-(dimethylamino)-ethyl]amino}-7-oxo-5,6,7,8-tetrahydropyrimido[4,5-d]pyrimidin-4-yl)-4-methylbenzamide] | statistically significant inhibition |
| Cc1ccc(C(=O)NC(C)C)cc1-c1nc(NC2CCN(Cc3ccccc3)CC2)nc2c1CNC(=O)N2c1c(F)cccc1F [Example 200, 3-(8-(2,6-difluorophenyl)-7-oxo-2-{[1-(phenylmethyl)-4-piperidinyl]amino}-5,6,7,8-tetrahydropyrimido[4,5-d]pyrimidin-4-yl)-4-methyl-N-(1-methylethyl)benzamide] | statistically significant inhibition |
| CCN(CC)CCCNc1nc(-c2cc(C(=O)Nc3ccc(F)cc3)ccc2C)c2c(n1)N(c1c(F)cccc1F)C(=O)NC2 [Example 43, 3-[2-{[3-(diethylamino)propyl]amino}-8-(2,6-difluorophenyl)-7-oxo-5,6,7,8-tetrahydropyrimido[4,5-d]pyrimidin-4-yl]-N-(4-fluorophenyl)-4-methylbenzamide] | inactive |
| Cc1ccc(C(=O)Nc2ccc(F)cc2)cc1-c1nc(N(C)CCN(C)C)nc2c1CNC(=O)N2c1c(F)cccc1F [Example 32, 3-{8-(2,6-difluorophenyl)-2-[[2-(dimethylamino)ethyl](methyl)amino]-7-oxo-5,6,7,8-tetrahydropyrimido[4,5-d]pyrimidin-4-yl}-N-(4-fluorophenyl)-4-methylbenzamide] | statistically nonsignificant inhibition |
| Cc1ccc(C(=O)Nc2ccc(F)cc2)cc1-c1nc(N2CCC(N3CCCC3)CC2)nc2c1CNC(=O)N2c1c(F)cccc1F [86(c), 3-{8-(2,6-difluorophenyl)-7-oxo-2-[4-(1-pyrrolidinyl)-1-piperidinyl]-5,6,7,8-tetrahydropyrimido[4,5-d]pyrimidin-4-yl}-N-(4-fluorophenyl)-4-methylbenzamide] | statistically nonsignificant inhibition |
| Cc1ccc(C(=O)NC(C)C)cc1-c1nc(N2CCCN(C)CC2)nc2c1CNC(=O)N2c1c(F)cccc1F [Example 179, 3-[8-(2,6-difluorophenyl)-2-(4-methylhexahydro-1H-1,4-diazepin-1-yl)-7-oxo-5,6,7,8-tetrahydropyrimido[4,5-d]pyrimidin-4-yl]-4-methyl-N-(1-methylethyl)benzamide Trifluoroacetate] | statistically nonsignificant inhibition |
| CN(C)CCNc1nc(-c2cccc(C(=O)Nc3ccc(F)cc3)c2)c2c(n1)N(c1c(F)cccc1F)C(=O)NC2 [Example 93, 3-(8-(2,6-difluorophenyl)-2-{[2-(dimethylamino)ethyl]amino}-7-oxo-5,6,7,8-tetrahydropyrimido[4,5-d]pyrimidin-4-yl)-N-(4-fluorophenyl)benzamide] | statistically nonsignificant inhibition |
| Cc1ccc(C(=O)NC(C)C)cc1-c1nc(NCCN(C)C)nc2c1CNC(=O)N2c1c(F)cccc1F [Example 37, 3-(8-(2,6-difluorophenyl)-2-{[2-(dimethylamino)ethyl]amino}-7-oxo-5,6,7,8-tetrahydropyrimido[4,5-d]pyrimidin-4-yl)-4-methyl-N-(1-methylethyl)benzamide] | statistically nonsignificant inhibition |
| CCCNC(=O)c1ccc(C)c(-c2nc(NCCCN(CC)CC)nc3c2CNC(=O)N3c2c(F)cccc2F)c1 [29(c), 3-[2-{[3-(diethylamino)propyl]amino}-8-(2,6-difluorophenyl)-7-oxo-5,6,7,8-tetrahydropyrimido[4,5-d]pyrimidin-4-yl]-4-methyl-N-propylbenzamide] | statistically significant inhibition |
| Cc1ccc(C(=O)Nc2nccs2)cc1-c1nc(NCCN(C)C)nc2c1CNC(=O)N2c1c(F)cccc1F [118(c), 3-(8-(2,6-difluorophenyl)-2-{[2-(dimethylamino)ethyl]amino}-7-oxo-5,6,7,8-tetrahydropyrimido[4,5-d]pyrimidin-4-yl)-4-methyl-N-1,3-thiazol-2-ylbenzamide] | statistically significant inhibition |
| COc1ccc(NC(=O)c2ccc(C)c(-c3nc(NCCN(C)C)nc4c3CNC(=O)N4c3c(F)cccc3F)c2)cn1 [Example 140, 3-(8-(2,6-difluorophenyl)-2-{[2-(dimethylamino)ethyl]amino}-7-oxo-5,6,7,8-tetrahydropyrimido[4,5-d]pyrimidin-4-yl)-4-methyl-N-[6-(methyloxy)-3-pyridinyl]benzamide] | statistically significant inhibition |
| CCCNC(=O)c1ccc(C)c(-c2nc(N(C)CCCN(C)C)nc3c2CNC(=O)N3c2c(F)cccc2F)c1 [Example 53, 3-{8-(2,6-difluorophenyl)-2-[[3-(dimethylamino)propyl](methyl)amino]-7-oxo-5,6,7,8-tetrahydropyrimido[4,5-d]pyrimidin-4-yl}-4-methyl-N-propylbenzamide] | statistically nonsignificant inhibition |
| Cc1ccc(C(=O)Nc2ccc(F)cc2)cc1-c1nc(NCCCN(C)C)nc2c1CNC(=O)N2c1c(F)cccc1F [Example 42, 3-(8-(2,6-difluorophenyl)-2-{[3-(dimethylamino)propyl]amino}-7-oxo-5,6,7,8-tetrahydropyrimido[4,5-d]pyrimidin-4-yl)-N-(4-fluorophenyl)-4-methylbenzamide] | statistically significant inhibition |
| CN(C)CCNc1nc(-c2cccc(C(=O)Nc3nccs3)c2)c2c(n1)N(c1c(F)cccc1F)C(=O)NC2 [Example 92, 3-(8-(2,6-difluorophenyl)-2-{[2-(dimethylamino)ethyl]amino}-7-oxo-5,6,7,8-tetrahydropyrimido[4,5-d]pyrimidin-4-yl)-N-1,3-thiazol-2-ylbenzamide] | statistically significant inhibition |
| CSc1ccc(NC(=O)c2ccc(C)c(-c3nc(NCCN(C)C)nc4c3CNC(=O)N4c3c(F)cccc3F)c2)cc1 [Example 127, 3-(8-(2,6-difluorophenyl)-2-{[2-(dimethylamino)ethyl]amino}-7-oxo-5,6,7,8-tetrahydropyrimido[4,5-d]pyrimidin-4-yl)-4-methyl-N-[4-(methylthio)phenyl]benzamide] | statistically significant inhibition |
| Cc1ccc(C(=O)NC(C)C)cc1-c1nc(N2CCC(N3CCCC3)CC2)nc2c1CNC(=O)N2c1c(F)cccc1F [Example 60, 3-{8-(2,6-difluorophenyl)-7-oxo-2-[4-(1-pyrrolidinyl)-1-piperidinyl]-5,6,7,8-tetrahydropyrimido[4,5-d]pyrimidin-4-yl}-4-methyl-N-(1-methylethyl)benzamide] | statistically nonsignificant inhibition; also recorded: inactive |
| CSc1nc(-c2cc(NC(=O)c3ccc(C)c(F)c3)ccc2C)c2c(n1)N(c1c(F)cccc1F)C(=O)NC2 [23(c), N-{3-[8-(2,6-difluorophenyl)-2-(methylthio)-7-oxo-5,6,7,8-tetrahydropyrimido[4,5-d]pyrimidin-4-yl]-4-methylphenyl}-3-fluoro-4-methylbenzamide] | inactive |
| Cc1ccc(C(=O)Nc2ccc(F)cc2)cc1-c1nc(NCCN(C)C)nc2c1CNC(=O)N2c1c(F)cccc1F [8(c), 3-(8-(2,6-difluorophenyl)-2-{[2-(dimethylamino)ethyl]amino}-7-oxo-5,6,7,8-tetrahydropyrimido[4,5-d]pyrimidin-4-yl)-N-(4-fluorophenyl)-4-methylbenzamide] | statistically significant inhibition |
| Cc1ccc(C(=O)NC(C)C)cc1-c1nc(NCCCN(C)C)nc2c1CNC(=O)N2c1c(F)cccc1F [Example 40, 3-(8-(2,6-difluorophenyl)-2-{[3-(dimethylamino)propyl]amino}-7-oxo-5,6,7,8-tetrahydropyrimido[4,5-d]pyrimidin-4-yl)-4-methyl-N-(1-methylethyl)benzamide] | statistically significant inhibition |
| Cc1ccc(C(=O)Nc2nccs2)cc1-c1nc(N(C)CCCN(C)C)nc2c1CNC(=O)N2c1c(F)cccc1F [Example 124, 3-{8-(2,6-difluorophenyl)-2-[[3-(dimethylamino)propyl](methyl)amino]-7-oxo-5,6,7,8-tetrahydropyrimido[4,5-d]pyrimidin-4-yl}-4-methyl-N-1,3-thiazol-2-ylbenzamide] | statistically nonsignificant inhibition |
